Publication PMC12337190, “A bacterial actin with high ATPase activity regulates the polymerization of a partner MreB isoform essential for Spiroplasma swimming motility” (The Journal of Biological Chemistry, 2025)
Blank lines part the entries; values can stand above or below the compound they belong to.

How the values were obtained:
SpeMreB5 = target: T1, SpeMreB5 (Spiroplasma eriocheiris, UniProt A0A0H3XIQ3); assay: liposome cosedimentation (loss of membrane binding with nucleotide); settings: 1 mM nucleotide, SpiroLipid liposomes, 200 mM KCl, 1 mM MgCl2, pH 7.5
T1 construct: gene mreB5; full-length SpeMreB5, 6xHis tag, pCold-15b, E. coli BL21(DE3), codon-optimized
T1 sequence (A0A0H3XIQ3 1-350): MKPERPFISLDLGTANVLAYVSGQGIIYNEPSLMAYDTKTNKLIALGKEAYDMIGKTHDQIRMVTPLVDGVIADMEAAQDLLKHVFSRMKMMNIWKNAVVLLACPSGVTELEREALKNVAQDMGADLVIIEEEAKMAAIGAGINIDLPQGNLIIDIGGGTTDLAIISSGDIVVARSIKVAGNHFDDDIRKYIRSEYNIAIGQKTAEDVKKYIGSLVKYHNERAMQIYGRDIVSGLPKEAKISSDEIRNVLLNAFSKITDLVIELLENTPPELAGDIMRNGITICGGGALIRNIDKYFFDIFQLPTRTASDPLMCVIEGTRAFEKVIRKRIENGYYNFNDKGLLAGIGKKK

PrS-SpeMreB1 = target: T2, PrS-SpeMreB1 (Spiroplasma eriocheiris, UniProt A0A0H3XI00); assay: sedimentation assay of polymerization; assay type: biochemical; settings: 2 mM ADP, 1 M NaCl, 2 mM MgCl2, pH 8.0, room temperature; polymerizes with nucleotide, not nucleotide-free
T2 construct: gene mreB1; full-length SpeMreB1; N-terminal 6xHis, two ProteinS (M. xanthus) solubilization tags, factor Xa site; C-terminal 6xHis; tags kept; 560 residues with tags; E. coli BL21(DE3), codon-optimized; monomeric gel filtration fraction
T2 sequence (A0A0H3XI00 1-346): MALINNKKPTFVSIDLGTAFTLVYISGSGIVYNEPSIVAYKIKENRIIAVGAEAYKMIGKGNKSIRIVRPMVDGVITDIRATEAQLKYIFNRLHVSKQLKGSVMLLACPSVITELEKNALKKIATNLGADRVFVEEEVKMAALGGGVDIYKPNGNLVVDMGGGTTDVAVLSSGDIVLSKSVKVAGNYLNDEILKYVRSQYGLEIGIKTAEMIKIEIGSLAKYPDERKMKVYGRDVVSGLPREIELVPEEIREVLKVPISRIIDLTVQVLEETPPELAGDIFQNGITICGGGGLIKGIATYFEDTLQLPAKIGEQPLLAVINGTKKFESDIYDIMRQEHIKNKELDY

[1] = target: PrS-SpeMreB1 WT (monomeric gel-filtration fraction) (Spiroplasma eriocheiris); assay: sedimentation assay (ultracentrifugation); buffer S with 2 mM AMPPNP; 3 h at room temperature; 100,000 rpm, 23 °C, 90 min; no linear fit possible (small pellet amounts)
[2] = target: PrS-SpeMreB1 WT (monomeric gel-filtration fraction) (Spiroplasma eriocheiris); assay: sedimentation assay (ultracentrifugation); buffer S with 2 mM ADP; 3 h at room temperature; 100,000 rpm, 23 °C, 90 min; critical concentration as x-intercept of the linear fit
[3] = target: PrS-SpeMreB1 WT (monomeric gel-filtration fraction) (Spiroplasma eriocheiris); assay: sedimentation assay (ultracentrifugation); buffer S (20 mM Tris-HCl pH 8.0, 1 M NaCl, 200 mM L-arginine-HCl, 5 mM DTT, 2 mM MgCl2) with 2 mM ATP; 3 h at room temperature; 100,000 rpm, 23 °C, 90 min; critical concentration as x-intercept of the linear fit
[4] = target: PrS-SpeMreB1 T164A (Spiroplasma eriocheiris); assay: as above

Compound: Nc1ncnc2c1ncn2[C@@H]1O[C@H](COP(=O)(O)OP(=O)(O)OP(=O)(O)O)[C@@H](O)[C@H]1O [ATP]
- liposome cosedimentation (loss of membrane binding with nucleotide) (SpeMreB5): SpeMreB5 did not bind to the liposomes in the presence of nucleotides

Compound: Nc1ncnc2c1ncn2[C@@H]1O[C@H](COP(=O)(O)OP(=O)(O)O)[C@@H](O)[C@H]1O [ADP]
- sedimentation assay of polymerization (PrS-SpeMreB1): PrS-SpeMreB1 was less polymerized in the presence of ADP
- liposome cosedimentation (loss of membrane binding with nucleotide) (SpeMreB5): SpeMreB5 did not bind to the liposomes in the presence of nucleotides

- critical concentration (CC) for polymerization [1]: > 7 µM
- critical concentration (CC) for polymerization [2]: 3.8 µM
- critical concentration (CC) for polymerization [3]: 0.41 µM
Compound: PrS-SpeMreB1 WT (monomeric gel-filtration fraction) (natural protein)

Compound: PrS-SpeMreB1 T164A (natural protein)
- critical concentration (CC) for polymerization [4]: 3 µM

Compound: Nc1ncnc2c1ncn2[C@@H]1O[C@H](COP(=O)(O)OP(=O)(O)NP(=O)(O)O)[C@@H](O)[C@H]1O [AMPPNP]
- liposome cosedimentation (loss of membrane binding with nucleotide) (SpeMreB5): SpeMreB5 did not bind to the liposomes in the presence of nucleotides
